Results on seven compounds are retold here after ChEMBL document CHEMBL1156344, “New bisdesmosidic triterpene saponins from the roots of Pulsatilla chinensis” (J Nat Prod, 2001).

Calls of active or inactive are those of the source. The rule behind the calls is not given here.

The test concerns HL-60. Nature of the test: Cytotoxicity against human HL60 cells at 10 ug/mL by MTT assay. It counts as functional, cell-based. A general note: Tetrazolium assays rely on reduction of a dye to a coloured formazan, in cell work by metabolically active cells.
Consider `C=C(C)[C@@H]1CC[C@]2(C(=O)O[C@@H]3O[C@H](CO[C@@H]4O[C@H](CO)[C@@H](O[C@@H]5O[C@@H](C)[C@H](O)[C@@H](O)[C@H]5O)[C@H](O)[C@H]4O)[C@@H](O)[C@H](O)[C@H]3O)CC[C@]3(C)[C@H](CC[C@@H]4[C@@]5(C)CC[C@H](O[C@@H]6OC[C@H](O[C@@H]7O[C@H](CO)[C@@H](O[C@@H]8O[C@H](CO)[C@@H](O)[C@H](O)[C@H]8O)[C@H](O)[C@H]7O)[C@H](O)[C@H]6O[C@@H]6O[C@@H](C)[C@H](O)[C@@H](O)[C@H]6O)[C@@](C)(CO)[C@@H]5CC[C@]43C)[C@@H]12`, for which the result was inactive. On to `C=C(C)[C@@H]1CC[C@]2(C(=O)O[C@@H]3O[C@H](CO[C@@H]4O[C@H](CO)[C@@H](O[C@@H]5O[C@@H](C)[C@H](O)[C@@H](O)[C@H]5O)[C@H](O)[C@H]4O)[C@@H](O)[C@H](O)[C@H]3O)CC[C@]3(C)[C@H](CC[C@@H]4[C@@]5(C)CC[C@H](O[C@@H]6OC[C@H](O)[C@H](O)[C@H]6O[C@@H]6O[C@@H](C)[C@H](O)[C@@H](O)[C@H]6O)[C@@](C)(CO)[C@@H]5CC[C@]43C)[C@@H]12`, for which the result was inactive. As for `C=C(C)[C@@H]1CC[C@]2(C(=O)O[C@@H]3O[C@H](CO[C@@H]4O[C@H](CO)[C@@H](O[C@@H]5O[C@@H](C)[C@H](O)[C@@H](O)[C@H]5O)[C@H](O)[C@H]4O)[C@@H](O)[C@H](O)[C@H]3O)CC[C@]3(C)[C@H](CC[C@@H]4[C@@]5(C)CC[C@H](O[C@@H]6OC[C@H](O)[C@H](O)[C@H]6O[C@@H]6O[C@@H](C)[C@H](O)[C@@H](O)[C@H]6O)C(C)(C)[C@@H]5CC[C@]43C)[C@@H]12`, the outcome was inactive. To `C=C(C)[C@@H]1CC[C@]2(C(=O)O[C@@H]3O[C@H](CO[C@@H]4O[C@H](CO)[C@@H](O[C@@H]5O[C@@H](C)[C@H](O)[C@@H](O)[C@H]5O)[C@H](O)[C@H]4O)[C@@H](O)[C@H](O)[C@H]3O)CC[C@]3(C)[C@H](CC[C@@H]4[C@@]5(C)CC[C@H](O[C@@H]6OC[C@H](O)[C@H](O)[C@H]6O)[C@@](C)(CO)[C@@H]5CC[C@]43C)[C@@H]12` belongs “inactive”. As for `C=C(C)[C@@H]1CC[C@]2(C(=O)O[C@@H]3O[C@H](CO[C@@H]4O[C@H](CO)[C@@H](O[C@@H]5O[C@@H](C)[C@H](O)[C@@H](O)[C@H]5O)[C@H](O)[C@H]4O)[C@@H](O)[C@H](O)[C@H]3O)CC[C@]3(C)[C@H](CC[C@@H]4[C@@]5(C)CC[C@H](O[C@@H]6OC[C@H](O[C@@H]7O[C@H](CO)[C@@H](O)[C@H](O)[C@H]7O)[C@H](O)[C@H]6O[C@@H]6O[C@@H](C)[C@H](O)[C@@H](O)[C@H]6O)[C@@](C)(CO)[C@@H]5CC[C@]43C)[C@@H]12`, the outcome was inactive.

For the compound `C=C(C)[C@@H]1CC[C@]2(C(=O)O)CC[C@]3(C)[C@H](CC[C@@H]4[C@@]5(C)CC[C@H](O[C@@H]6OC[C@H](O)[C@H](O)[C@H]6O[C@@H]6O[C@@H](C)[C@H](O)[C@@H](O)[C@H]6O)[C@@](C)(CO)[C@@H]5CC[C@]43C)[C@@H]12`, the outcome was inactive.

In the case of `C[C@@H]1O[C@@H](O[C@H]2[C@H](O[C@H]3CC[C@@]4(C)[C@@H](CC[C@]5(C)[C@@H]4CC[C@@H]4[C@H]6[C@H](C(C)(C)O)CC[C@]6(C(=O)O[C@@H]6O[C@H](CO[C@@H]7O[C@H](CO)[C@@H](O[C@@H]8O[C@@H](C)[C@H](O)[C@@H](O)[C@H]8O)[C@H](O)[C@H]7O)[C@@H](O)[C@H](O)[C@H]6O)CC[C@]45C)[C@]3(C)CO)OC[C@H](O)[C@@H]2O)[C@H](O)[C@H](O)[C@H]1O`, the outcome was inactive.
